Source: ChEMBL document CHEMBL5465560, “Selectivity Literature for EUbOPEN Chemogenomic Library” (2024)

Experiments:
[1] = molecular target: Serine/threonine-protein kinase N2 (Homo sapiens, UniProt Q16513); assay: Selectivity interaction (KinomeScan (DiscoverX)) EUB0001619a PKN2; details: at 1 µM
[2] = molecular target: Ephrin type-A receptor 5 (Homo sapiens) (UniProt P54756); assay: Selectivity interaction (KinomeScan (DiscoverX)) EUB0000595a EPHA5; details: at 10 µM
[3] = molecular target: Tyrosine-protein kinase receptor UFO (Homo sapiens) (UniProt P30530); details: at 10 µM
Chain of Tyrosine-protein kinase receptor UFO (Homo sapiens) (P30530 whole entry): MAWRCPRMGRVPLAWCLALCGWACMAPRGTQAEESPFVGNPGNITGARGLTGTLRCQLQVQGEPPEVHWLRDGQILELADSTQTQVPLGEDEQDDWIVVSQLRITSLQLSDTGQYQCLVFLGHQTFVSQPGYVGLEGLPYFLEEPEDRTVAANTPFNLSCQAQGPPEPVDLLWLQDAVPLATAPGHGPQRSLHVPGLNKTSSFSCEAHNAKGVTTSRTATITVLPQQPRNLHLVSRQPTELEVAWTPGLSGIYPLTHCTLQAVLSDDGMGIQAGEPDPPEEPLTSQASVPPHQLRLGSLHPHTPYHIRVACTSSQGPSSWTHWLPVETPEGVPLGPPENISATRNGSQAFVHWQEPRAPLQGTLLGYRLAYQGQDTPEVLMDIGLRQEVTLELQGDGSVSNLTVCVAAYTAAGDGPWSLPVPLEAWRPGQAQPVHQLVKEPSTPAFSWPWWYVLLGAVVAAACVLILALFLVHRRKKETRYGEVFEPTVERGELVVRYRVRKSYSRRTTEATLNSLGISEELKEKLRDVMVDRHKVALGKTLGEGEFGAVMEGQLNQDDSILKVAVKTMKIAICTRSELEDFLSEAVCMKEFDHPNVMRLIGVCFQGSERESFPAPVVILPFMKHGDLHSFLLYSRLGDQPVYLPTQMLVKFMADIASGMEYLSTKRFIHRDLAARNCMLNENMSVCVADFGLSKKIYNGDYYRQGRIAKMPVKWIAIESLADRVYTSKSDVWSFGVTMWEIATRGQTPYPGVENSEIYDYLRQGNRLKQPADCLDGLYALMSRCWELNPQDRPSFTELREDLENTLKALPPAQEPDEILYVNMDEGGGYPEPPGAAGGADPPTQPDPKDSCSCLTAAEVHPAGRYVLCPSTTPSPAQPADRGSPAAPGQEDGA

[4] = molecular target: T1, Protein kinase C epsilon type (Homo sapiens) (UniProt Q02156); assay: Selectivity interaction (KinomeScan (DiscoverX)) EUB0000229b PRKCE; details: at 10 µM
T1 sequence (whole entry): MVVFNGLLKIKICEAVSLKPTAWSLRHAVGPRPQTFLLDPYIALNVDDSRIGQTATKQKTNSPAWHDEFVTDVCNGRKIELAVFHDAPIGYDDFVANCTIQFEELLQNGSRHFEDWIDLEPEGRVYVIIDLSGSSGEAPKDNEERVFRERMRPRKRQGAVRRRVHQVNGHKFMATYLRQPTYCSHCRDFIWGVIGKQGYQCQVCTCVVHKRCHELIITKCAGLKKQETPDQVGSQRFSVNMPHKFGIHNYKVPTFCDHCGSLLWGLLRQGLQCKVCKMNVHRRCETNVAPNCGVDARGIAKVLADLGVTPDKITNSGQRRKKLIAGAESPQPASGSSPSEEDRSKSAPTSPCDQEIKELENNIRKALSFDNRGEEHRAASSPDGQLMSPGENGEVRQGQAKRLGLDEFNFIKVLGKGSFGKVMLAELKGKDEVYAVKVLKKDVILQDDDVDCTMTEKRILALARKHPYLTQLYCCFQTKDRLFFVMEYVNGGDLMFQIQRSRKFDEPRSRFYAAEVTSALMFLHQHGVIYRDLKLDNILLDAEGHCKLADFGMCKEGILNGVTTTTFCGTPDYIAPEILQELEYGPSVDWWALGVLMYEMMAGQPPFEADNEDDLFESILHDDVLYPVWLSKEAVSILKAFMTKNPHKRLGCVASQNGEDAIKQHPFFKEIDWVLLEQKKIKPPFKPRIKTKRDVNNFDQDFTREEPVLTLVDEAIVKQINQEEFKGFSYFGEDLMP

[5] = molecular target: T2, Serine/threonine-protein kinase 36 (Homo sapiens) (UniProt Q9NRP7); assay: Selectivity interaction (KinomeScan (DiscoverX)) EUB0000695a STK36; details: at 100 nM
T2 sequence (whole entry): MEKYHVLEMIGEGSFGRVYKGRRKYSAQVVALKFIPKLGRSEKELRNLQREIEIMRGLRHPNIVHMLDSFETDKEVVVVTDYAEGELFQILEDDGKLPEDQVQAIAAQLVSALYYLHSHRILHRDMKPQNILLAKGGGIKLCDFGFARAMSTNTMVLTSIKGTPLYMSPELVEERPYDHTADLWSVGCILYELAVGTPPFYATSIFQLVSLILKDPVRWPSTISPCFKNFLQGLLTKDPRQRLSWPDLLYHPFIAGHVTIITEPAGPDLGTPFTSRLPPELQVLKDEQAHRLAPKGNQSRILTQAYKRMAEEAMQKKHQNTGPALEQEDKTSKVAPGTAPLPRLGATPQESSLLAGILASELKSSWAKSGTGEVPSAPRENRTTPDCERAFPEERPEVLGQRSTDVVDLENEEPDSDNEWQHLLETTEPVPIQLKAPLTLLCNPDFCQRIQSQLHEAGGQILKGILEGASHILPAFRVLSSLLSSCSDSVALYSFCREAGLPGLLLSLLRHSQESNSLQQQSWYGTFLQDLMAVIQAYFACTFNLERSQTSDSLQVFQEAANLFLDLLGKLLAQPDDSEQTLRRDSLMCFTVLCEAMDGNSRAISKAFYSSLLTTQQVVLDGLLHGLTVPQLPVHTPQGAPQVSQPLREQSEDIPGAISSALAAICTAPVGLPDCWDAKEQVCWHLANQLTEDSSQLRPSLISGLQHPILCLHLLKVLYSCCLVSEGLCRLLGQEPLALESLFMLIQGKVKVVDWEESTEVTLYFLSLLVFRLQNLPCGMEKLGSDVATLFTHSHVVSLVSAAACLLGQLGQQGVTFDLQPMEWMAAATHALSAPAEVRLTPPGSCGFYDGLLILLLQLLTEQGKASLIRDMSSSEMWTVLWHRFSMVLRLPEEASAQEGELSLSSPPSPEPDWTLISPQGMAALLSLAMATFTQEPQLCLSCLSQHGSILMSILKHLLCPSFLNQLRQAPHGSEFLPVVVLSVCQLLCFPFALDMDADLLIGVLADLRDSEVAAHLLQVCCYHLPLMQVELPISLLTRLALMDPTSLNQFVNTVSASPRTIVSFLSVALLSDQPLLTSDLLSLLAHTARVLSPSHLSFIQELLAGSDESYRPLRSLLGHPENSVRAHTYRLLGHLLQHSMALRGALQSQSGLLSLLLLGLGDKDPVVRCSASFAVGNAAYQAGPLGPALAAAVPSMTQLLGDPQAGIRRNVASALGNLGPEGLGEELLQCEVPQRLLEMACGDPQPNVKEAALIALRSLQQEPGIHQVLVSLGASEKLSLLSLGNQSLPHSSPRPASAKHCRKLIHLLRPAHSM

Chain of Ephrin type-A receptor 5 (Homo sapiens) (P54756 whole entry): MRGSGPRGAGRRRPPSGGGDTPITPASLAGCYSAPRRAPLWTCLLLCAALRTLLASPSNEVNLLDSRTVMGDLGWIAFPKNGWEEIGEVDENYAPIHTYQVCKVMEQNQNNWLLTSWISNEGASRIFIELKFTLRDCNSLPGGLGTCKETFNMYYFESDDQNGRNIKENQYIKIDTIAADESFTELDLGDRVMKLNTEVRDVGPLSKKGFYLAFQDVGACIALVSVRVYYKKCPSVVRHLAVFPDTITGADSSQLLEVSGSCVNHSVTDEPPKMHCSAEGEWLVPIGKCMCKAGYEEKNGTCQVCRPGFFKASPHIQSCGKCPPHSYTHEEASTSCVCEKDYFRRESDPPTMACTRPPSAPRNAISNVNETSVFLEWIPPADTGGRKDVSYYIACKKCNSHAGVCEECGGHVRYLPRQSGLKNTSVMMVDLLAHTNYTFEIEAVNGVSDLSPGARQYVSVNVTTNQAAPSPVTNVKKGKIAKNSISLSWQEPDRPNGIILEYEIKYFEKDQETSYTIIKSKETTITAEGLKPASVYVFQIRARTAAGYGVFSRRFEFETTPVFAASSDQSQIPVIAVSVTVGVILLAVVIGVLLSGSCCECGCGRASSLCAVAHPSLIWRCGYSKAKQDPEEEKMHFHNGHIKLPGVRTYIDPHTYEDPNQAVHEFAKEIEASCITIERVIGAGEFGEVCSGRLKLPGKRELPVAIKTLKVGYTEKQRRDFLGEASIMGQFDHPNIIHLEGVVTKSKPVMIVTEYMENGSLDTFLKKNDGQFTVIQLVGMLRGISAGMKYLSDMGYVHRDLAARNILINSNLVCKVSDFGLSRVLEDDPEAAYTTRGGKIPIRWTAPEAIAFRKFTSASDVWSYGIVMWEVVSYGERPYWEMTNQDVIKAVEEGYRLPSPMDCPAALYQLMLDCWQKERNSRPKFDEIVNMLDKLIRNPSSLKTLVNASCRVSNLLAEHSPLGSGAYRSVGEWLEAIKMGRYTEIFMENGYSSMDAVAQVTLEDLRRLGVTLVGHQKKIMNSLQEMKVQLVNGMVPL
Chain of Serine/threonine-protein kinase N2 (Q16513 whole entry, looked up): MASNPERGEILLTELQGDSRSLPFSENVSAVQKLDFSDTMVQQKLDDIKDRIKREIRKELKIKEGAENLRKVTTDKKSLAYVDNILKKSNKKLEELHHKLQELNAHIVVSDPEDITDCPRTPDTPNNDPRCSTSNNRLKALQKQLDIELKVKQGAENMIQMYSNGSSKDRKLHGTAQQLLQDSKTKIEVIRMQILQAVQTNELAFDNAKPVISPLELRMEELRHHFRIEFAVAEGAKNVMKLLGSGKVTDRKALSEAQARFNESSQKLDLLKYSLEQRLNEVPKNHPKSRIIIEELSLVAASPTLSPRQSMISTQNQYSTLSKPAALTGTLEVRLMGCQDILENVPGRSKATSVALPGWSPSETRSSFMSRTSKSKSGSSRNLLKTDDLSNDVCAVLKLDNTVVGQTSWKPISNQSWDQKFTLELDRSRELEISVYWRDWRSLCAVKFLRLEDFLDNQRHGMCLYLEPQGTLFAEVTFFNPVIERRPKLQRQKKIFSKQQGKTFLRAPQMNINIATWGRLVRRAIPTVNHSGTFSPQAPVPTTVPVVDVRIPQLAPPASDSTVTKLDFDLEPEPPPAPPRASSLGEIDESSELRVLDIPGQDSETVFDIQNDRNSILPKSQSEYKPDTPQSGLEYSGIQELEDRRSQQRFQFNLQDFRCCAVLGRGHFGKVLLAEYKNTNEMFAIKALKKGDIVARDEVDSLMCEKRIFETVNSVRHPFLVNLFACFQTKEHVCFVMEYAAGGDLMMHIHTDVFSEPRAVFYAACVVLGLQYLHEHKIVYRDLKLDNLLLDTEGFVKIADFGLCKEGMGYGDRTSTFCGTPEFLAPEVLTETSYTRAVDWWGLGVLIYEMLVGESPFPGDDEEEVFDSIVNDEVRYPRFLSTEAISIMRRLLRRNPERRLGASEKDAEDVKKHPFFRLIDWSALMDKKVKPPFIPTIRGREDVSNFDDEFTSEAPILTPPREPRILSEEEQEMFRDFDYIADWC

For N#Cc1cccc(-c2c[nH]c3ncnc(N4CCOCC4)c23)c1, the % of control [1] was 35%.

COCC(=O)NC/C=C/c1ccc2ncnc(Nc3ccc(Oc4ccc(C)nc4)c(C)c3)c2c1 [CP-724714] was tested, and the % of control [2] was 100%.

Cc1cc([C@@H](C)Nc2ccccc2C(=O)O)c2nc(N3CCOCC3)cc(=O)n2c1 [AZD-6482] gave a % of control [3] of 86%.

In the case of COc1cc(N(C)c2ccnc3ccc(C(F)(F)F)cc23)cc(OC)c1OC, the % binding [4] is reported as 55%.

Cc1cc(F)c(C(=O)Nc2cccc(-c3nncn3C(C)C)n2)cc1-n1cnc(C2CC2)c1 was tested, and the % of control [5] was 100%.
